Laboratory results reported in US12286442B2, “Methods and materials for increasing transcription factor eb polypeptide levels” (University of Pittsburgh—Of the Commonwealth System of …, priority 2019, dated 2025).

Columns and labels:
BEAS-2B cells = assay: Toxicity: compound concentration needed to induce greater than 50 percent of cell loss; format: cell-based, human; details: 18 hours incubation
Protocol: (§1) Approximately 2300 primary and immortalized human bronchial epithelial cells (BEAS-2B) stably expressing TFEB-EGFP in 25 μL of HITEs media with 10% FBS were dispensed into 384 well plate (Black with glass bottom) and incubated for 8 hours. Compound serial dilution (DMEM low glucose media with 2% FBS, 25 μL volume) were prepared using a robotic liquid hander. Compound solution were then added to the cell plate and incubated for 18 hours. Cells were then fixed with 4% PFA followed by DAPI staining. TFEB localization was imaged on the GFP channel along with the DAPI signal using a Cytation 5 high content imager. Images were processed through Biotek Gen5 software. Specifically, the DAPI signal was used as the primary mask to quantify the nuclear TFEB-GFP signal. Cytosolic TFEB-GFP signal was quantified through expanding the primary mask. The TFEB nuclear/cytosol ratios were calculated from nuclear TFEB-GFP signal/cytosol TFEB-GFP signal, which determined the compound efficacies.
Toxicity was determined by determining the compound concentration needed to induce greater than 50 percent of cell loss. For toxicity, cell loss of greater than 50 percent at a concentration that equals or is greater than 25 μM was represented as cell loss of greater than 50 percent at a concentration less than 25 μM and greater than 1 μM was represented as and cell loss of greater than 50 percent at a concentration that equals or is less than 1 μM was represented as “+++.” The assay results for compounds 1-202, 214-248, 332, 333, and 352-402 are shown in Table A.

TFEB = assay: High content screen measuring TFEB nuclear accumulation (TFEB nuclear/cytosol ratio) in BEAS-2B cells stably expressing TFEB-EGFP; format: cell-based, human; details: 18 hours incubation
Protocol: FIG. 3. High content screen assay (384 well) measuring TFEB nuclear accumulation. Approximately 2500 primary and immortalized human bronchial epithelial cells (BEAS-2B) stably expressing TFEB-EGFP in 25 μL of HITEs media with 10% FBS were dispensed into 384 well plate (Black with glass bottom) and incubated for 8 hours. Compound serial dilution (DMEM low glucose media with 2% FBS, 25 μL volume) were prepared using a robotic liquid hander. Compound solutions were then added to the cell plate and incubated for 18 hours. Cells were then fixed with 4% PFA followed by DAPI staining. TFEB localization was imaged on the GFP channel along with the DAPI signal using a Cytation 5 high content imager. Images were processed through Biotek Gen5 software; specifically, the DAPI signal was used as the primary mask to quantify the nuclear TFEB-GFP signal. The cytosolic TFEB-GFP signal was quantified through expanding the primary mask. The TFEB nuclear/cytosol ratios were calculated from nuclear TFEB-GFP signal/cytosol TFEB-GFP signal, which determined the compound efficacy. […] Compound activities (μM) were determined by the minimal compound concentration needed to increase TFEB nuclear/cytosol ratio by 25%. Activity: “−” equals >25 μM; “+” equals between 25 μM and >10 μM; “++” equals between ≤10 μM and >1 μM; and “+++” equals […]. N=4.
as §1
Compounds efficacies (μM) were determined by the minimal compound concentration needed to increase TFEB nuclear/cytosol ratio by 25%. Activity: “+” equals >25 μM; “++” equals between ≤25 μM and >1 μM; and “+++” equals ≤1 μM.
A high-content imaging screen was conducted using Beas2B cells that stably express GFP-TFEB.

Structure (SMILES) | toxicity (compound concentration needed to induce greater than 50 percent of cell loss) (BEAS-2B cells) | efficacy (minimal compound concentration needed to increase TFEB nuclear/cytosol ratio by 25%) (TFEB)
c1ccc2c(Nc3ccc4[nH]ncc4c3)cc(-c3ccncc3)nc2c1 [Compound 68] | + (cell loss of greater than 50 percent at a concentration that equals or is greater than 25 μM was represented as) | + (“+” equals >25 μM)
c1cc(Nc2nc(-c3ccncc3)nc3ccccc23)c2[nH]ncc2c1 [Compound 100] | + (cell loss of greater than 50 percent at a concentration that equals or is greater than 25 μM was represented as) | + (“+” equals >25 μM)
Cc1cccc2c(Nc3ccc4ncsc4c3)nc(-c3ccncc3)nc12 [Compound 371] | + (cell loss of greater than 50 percent at a concentration that equals or is greater than 25 μM was represented as) | +++ (“+++” equals ≤1 μM)
Cc1nc2ccc(Nc3nc(-c4ccncc4)nc4ccncc34)cc2o1 [Compound 140] | + (cell loss of greater than 50 percent at a concentration that equals or is greater than 25 μM was represented as) | + (“+” equals >25 μM)
COc1ccc2nc(-c3ccncc3)nc(Nc3ccc4nc(C(C)C)sc4c3)c2c1 [Compound 364] | + (cell loss of greater than 50 percent at a concentration that equals or is greater than 25 μM was represented as) | + (“+” equals >25 μM)
CC(C#N)CN(C)c1nc(-c2ccncc2)nc2ccccc12 (stereo not shown) [Compound 173] | + (cell loss of greater than 50 percent at a concentration that equals or is greater than 25 μM was represented as) | + (“+” equals >25 μM)
CC(C)c1nc2ccc(Nc3nc(-c4ccncc4)nc4ccc(F)cc34)cc2s1 [Compound 354] | + (cell loss of greater than 50 percent at a concentration that equals or is greater than 25 μM was represented as) | + (“+” equals >25 μM)
c1ccc2c(Nc3ccc4cnoc4c3)nc(-c3cncs3)nc2c1 [Compound 393] | + (cell loss of greater than 50 percent at a concentration that equals or is greater than 25 μM was represented as) | ++ (“++” equals between ≤25 μM and >1 μM)
CCCc1nc2ccc(Nc3nc(-c4ccncc4)nc4ncccc34)cc2o1 [Compound 363] | + (cell loss of greater than 50 percent at a concentration that equals or is greater than 25 μM was represented as) | +++ (“+++” equals ≤1 μM)
N#CCNc1nc(-c2ccncc2)nc2ccccc12 [Compound 169] | + (cell loss of greater than 50 percent at a concentration that equals or is greater than 25 μM was represented as) | + (“+” equals >25 μM)
Cc1cc(Nc2nc(-c3ccncc3)nc3ccccc23)ccc1N [Compound 58] | + (cell loss of greater than 50 percent at a concentration that equals or is greater than 25 μM was represented as) | ++ (“++” equals between ≤25 μM and >1 μM)
c1ccc2c(Nc3ccc4cn[nH]c4c3)nc(-c3cncs3)nc2c1 [Compound 389] | + (cell loss of greater than 50 percent at a concentration that equals or is greater than 25 μM was represented as) | + (“+” equals >25 μM)
COc1cccc2nc(-c3ccncc3)nc(Nc3ccc4nc(C(C)C)sc4c3)c12 [Compound 152] | + (cell loss of greater than 50 percent at a concentration that equals or is greater than 25 μM was represented as) | ++ (“++” equals between ≤25 μM and >1 μM)
CN(c1cccc(F)c1)c1nc(-c2ccncc2)nc2ccccc12 [Compound 4] | +++ (cell loss of greater than 50 percent at a concentration that equals or is less than 1 μM was represented as “+++.”) | +++ (“+++” equals ≤1 μM)
CC(C)(C)c1cc2cc(Nc3nc(-c4ccncc4)nc4ccncc34)ccc2[nH]1 [Compound 124] | + (cell loss of greater than 50 percent at a concentration that equals or is greater than 25 μM was represented as) | +++ (“+++” equals ≤1 μM)
c1ccc2c(Nc3ccc4cnccc4c3)nc(-c3ccncc3)nc2c1 [Compound 14] | + (cell loss of greater than 50 percent at a concentration that equals or is greater than 25 μM was represented as) | + (“+” equals >25 μM)
O=C(NCc1ccco1)c1ccc2c(=O)n(-c3ccccc3)c(=O)n(Cc3cccc(F)c3)c2c1 [Compound 234] | + (cell loss of greater than 50 percent at a concentration that equals or is greater than 25 μM was represented as) | ++ (“++” equals between ≤25 μM and >1 μM)
c1cnc2cc(-c3ccncc3)nc(Nc3ccc4nc(C5CC5)sc4c3)c2c1 [Compound 241] | + (cell loss of greater than 50 percent at a concentration that equals or is greater than 25 μM was represented as) | +++ (“+++” equals ≤1 μM)
COc1ccc(-n2c(=O)c3ccccc3n(Cc3ccccc3F)c2=O)cc1 [Compound 235] | + (cell loss of greater than 50 percent at a concentration that equals or is greater than 25 μM was represented as) | ++ (“++” equals between ≤25 μM and >1 μM)
COc1ccc2nc(-c3ccncc3)nc(Nc3ccc4nc(C(C)C)sc4c3)c2c1 [Compound 376] | + (cell loss of greater than 50 percent at a concentration that equals or is greater than 25 μM was represented as) | +++ (“+++” equals ≤1 μM)
O=C(Cc1ccc(-n2c(=O)c3ccccc3n(Cc3ccccc3F)c2=O)cc1)NC1CC1 [Compound 232] | + (cell loss of greater than 50 percent at a concentration that equals or is greater than 25 μM was represented as) | + (“+” equals >25 μM)
Cn1c(=O)c2ccccc2n(CC(=O)Nc2ccccc2)c1=O [Compound 224] | + (cell loss of greater than 50 percent at a concentration that equals or is greater than 25 μM was represented as) | + (“+” equals >25 μM)
COc1cccc2c(Nc3ccc4nc(C(C)C)sc4c3)nc(-c3ccncc3)nc12 [Compound 153] | + (cell loss of greater than 50 percent at a concentration that equals or is greater than 25 μM was represented as) | ++ (“++” equals between ≤25 μM and >1 μM)
